This is an account of results in PubChem BioAssay AID330 (DTP/NCI, 2004).

SMILES strings stand for the structures. Where “and” joins values, the source holds several entries; their conditions need not be identical. Equal entries are not always repeated. Inconclusive results and toxic doses are left out.

The test system of this assay is P388 leukemia ip, CD2F1 mice, survival T/C. As to the kind of experiment: NCI In Vivo Anticancer Drug Screen. Data for tumor model P388 Leukemia (intraperitoneal) in CD2F1 (CDF1) mice. Particulars: endpoint: median survival time, higher = longer survival. In short, it runs like this:
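Mice carrying the transplanted tumor received test compound or vehicle. Survival was recorded in each group, and the value is the treated-group measurement divided by that of the vehicle-treated control group.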

The mark [1] stands for this setting: dose: 25.0 mg/kg/injection, schedule: Q01DX009 (ip), vehicle: Klucel (hydroxypropylcellulose) (HPC).
[2] abbreviates: dose: 50.0 mg/kg/injection, schedule: Q01DX009 (ip), vehicle: Klucel (hydroxypropylcellulose) (HPC).
Where [3] appears, read: dose: 100.0 mg/kg/injection, schedule: Q01DX009 (ip), vehicle: Klucel (hydroxypropylcellulose) (HPC).
[4] abbreviates: dose: 200.0 mg/kg/injection, schedule: Q01DX009 (ip), vehicle: Klucel (hydroxypropylcellulose) (HPC).
Where [5] appears, read: dose: 50.0 mg/kg/injection, schedule: Q01DX009 (ip), vehicle: saline with Tween-80.
The mark [6] stands for this setting: dose: 100.0 mg/kg/injection, schedule: Q01DX009 (ip), vehicle: saline with Tween-80.
The mark [7] stands for this setting: dose: 100.0 mg/kg/injection, schedule: Q04DX003 (ip), vehicle: saline.

On to `O=C1C=CC(=O)c2c(O)cccc21`, for which the T/C by setting is: (dose: 0.39 mg/kg/injection, schedule: Q01DX009 (ip), vehicle: saline with Tween-80) 93 % of control; (dose: 0.75 mg/kg/injection, schedule: Q01DX009 (ip), vehicle: saline with Tween-80) 95 % of control; (dose: 0.78 mg/kg/injection, schedule: Q01DX009 (ip), vehicle: saline with Tween-80) 93 % of control; (dose: 1.5 mg/kg/injection, schedule: Q01DX009 (ip), vehicle: saline with Tween-80) 90 % of control; (dose: 1.56 mg/kg/injection, schedule: Q01DX009 (ip), vehicle: saline with Tween-80) 102 % of control; (dose: 3.13 mg/kg/injection, schedule: Q01DX009 (ip), vehicle: saline with Tween-80) 90 % of control.
`N#CC(NCc1ccccc1)C(O)c1ccccc1` (centres undefined): the T/C is 105 % of control (dose: 25.0 mg/kg/injection, schedule: Q01DX009 (ip), vehicle: suspension in saline); 105 % of control (dose: 50.0 mg/kg/injection, schedule: Q01DX009 (ip), vehicle: suspension in saline); 105 % of control (dose: 100.0 mg/kg/injection, schedule: Q01DX009 (ip), vehicle: suspension in saline).
As for `CCC(/C=C/c1ccc(OC)cc1)=N/Nc1ccccc1`, the T/C is 109 % of control (dose: 30.0 mg/kg/injection, schedule: Q01DX005 (ip), vehicle: other); 100 % of control (dose: 60.0 mg/kg/injection, schedule: Q01DX005 (ip), vehicle: other); 103 % of control and 109 % of control (dose: 120.0 mg/kg/injection, schedule: Q01DX005 (ip), vehicle: other); 113 % of control (dose: 240.0 mg/kg/injection, schedule: Q01DX005 (ip), vehicle: other).
As for `O=[N+]([O-])c1cc[n+]([O-])c(Cl)c1`, the T/C is 91 % of control under setting [1], 96 % of control under setting [2], 94 % of control under setting [3] and 101 % of control under setting [4].
In the case of `COc1cc2c(c(OC)c1OC)-c1ccc(=O)c(OC)cc1C=CC2`, the T/C runs as follows: (dose: 2.5 mg/kg/injection, schedule: Q01DX009 (ip), vehicle: Klucel (hydroxypropylcellulose) (HPC)) 100 % of control; (dose: 5.0 mg/kg/injection, schedule: Q01DX009 (ip), vehicle: Klucel (hydroxypropylcellulose) (HPC)) 106 % of control; (dose: 10.0 mg/kg/injection, schedule: Q01DX009 (ip), vehicle: Klucel (hydroxypropylcellulose) (HPC)) 104 % of control and 108 % of control; (dose: 20.0 mg/kg/injection, schedule: Q01DX009 (ip), vehicle: Klucel (hydroxypropylcellulose) (HPC)) 103 % of control and 109 % of control; (dose: 40.0 mg/kg/injection, schedule: Q01DX009 (ip), vehicle: Klucel (hydroxypropylcellulose) (HPC)) 106 % of control and 123 % of control; (dose: 80.0 mg/kg/injection, schedule: Q01DX009 (ip), vehicle: Klucel (hydroxypropylcellulose) (HPC)) 115 % of control.
As for `O=S(=O)(Nc1cc(C(F)(F)F)ccc1Cl)c1ccc(F)cc1`, the T/C is 104 % of control (dose: 60.0 mg/kg/injection, schedule: Q01DX005 (ip), vehicle: saline with Tween-80); 96 % of control (dose: 120.0 mg/kg/injection, schedule: Q01DX005 (ip), vehicle: saline with Tween-80); 100 % of control (dose: 240.0 mg/kg/injection, schedule: Q01DX005 (ip), vehicle: saline with Tween-80).
As for `O=Cc1cccc(C=O)c1`, the T/C was 106 % of control (dose: 0.63 mg/kg/injection, schedule: Q04DX002 (ip), vehicle: saline with Tween-80); 105 % of control (dose: 1.25 mg/kg/injection, schedule: Q04DX002 (ip), vehicle: saline with Tween-80); 107 % of control (dose: 2.5 mg/kg/injection, schedule: Q04DX002 (ip), vehicle: saline with Tween-80).
With `Clc1nc[nH]c1Cl`, the T/C was 109 % of control (dose: 25.0 mg/kg/injection, schedule: Q01DX009 (ip), vehicle: saline with Tween-80); 100 % of control under setting [5]; 98 % of control under setting [6].
On to `CCC(=O)Nc1ccc(N)cc1`, for which the T/C is, setting by setting: under setting [7], 98 % of control; (dose: 200.0 mg/kg/injection, schedule: Q04DX003 (ip), vehicle: saline) 97 % of control.
Regarding `[Cl][Ru][Cl].[NH-]CC[NH-].[NH-]CC[NH-]`, the T/C is, setting by setting: (dose: 12.5 mg/kg/injection, schedule: Q04DX003 (ip), vehicle: water) 111 % of control and 123 % of control and 124 % of control; (dose: 25.0 mg/kg/injection, schedule: Q04DX003 (ip), vehicle: water) 107 % of control; (dose: 50.0 mg/kg/injection, schedule: Q04DX003 (ip), vehicle: water) 155 % of control.
In the case of `Cc1cc(N)c(C)c(Br)c1C`, the T/C was 106 % of control under setting [5]; 99 % of control under setting [6]; 106 % of control (dose: 200.0 mg/kg/injection, schedule: Q01DX009 (ip), vehicle: saline with Tween-80).
`C1=C(c2ccccc2)CC2CCC1N2Cc1ccccc1` (centres undefined): the T/C runs as follows: (dose: 12.5 mg/kg/injection, schedule: Q01DX005 (ip), vehicle: saline with Tween-80) 99 % of control; (dose: 25.0 mg/kg/injection, schedule: Q01DX005 (ip), vehicle: saline with Tween-80) 103 % of control; (dose: 50.0 mg/kg/injection, schedule: Q01DX005 (ip), vehicle: saline with Tween-80) 101 % of control and 103 % of control.
Regarding `COc1cccc(C(=O)NC[n+]2ccccc2)c1`, the T/C is 100 % of control (dose: 25.0 mg/kg/injection, schedule: Q04DX003 (ip), vehicle: saline); 100 % of control (dose: 50.0 mg/kg/injection, schedule: Q04DX003 (ip), vehicle: saline); 109 % of control under setting [7].
Regarding `CC(C)CNS(=O)(=O)c1ncnc2nc[nH]c12`, the T/C (dose: 100.0 mg/kg/injection, schedule: Q04DX003 (ip), vehicle: saline with Tween-80) is 100 % of control and the T/C (dose: 200.0 mg/kg/injection, schedule: Q04DX003 (ip), vehicle: saline with Tween-80) was 87 % of control.
For `CCCCCCCCCCCCNC(=O)NCC(=O)OCC`, the T/C under setting [1] is 91 % of control, the T/C under setting [2] was 100 % of control, the T/C under setting [3] was 103 % of control and the T/C under setting [4] is 89 % of control.
In the case of `COc1c(C)n(C)n(-c2ccccc2)c1=O`, the T/C by setting is: (dose: 6.25 mg/kg/injection, schedule: Q01DX005 (ip), vehicle: saline) 108 % of control; (dose: 12.5 mg/kg/injection, schedule: Q01DX005 (ip), vehicle: saline) 98 % of control; (dose: 25.0 mg/kg/injection, schedule: Q01DX005 (ip), vehicle: saline) 108 % of control; (dose: 50.0 mg/kg/injection, schedule: Q01DX005 (ip), vehicle: saline) 102 % of control; (dose: 100.0 mg/kg/injection, schedule: Q01DX005 (ip), vehicle: saline) 105 % of control; (dose: 200.0 mg/kg/injection, schedule: Q01DX005 (ip), vehicle: saline) 102 % of control.
For `O=C(O)CCC1CC(=O)OC1c1ccccc1` (centres undefined), the T/C by setting is: (dose: 100.0 mg/kg/injection, schedule: Q01DX001 (ip), vehicle: Klucel (hydroxypropylcellulose) (HPC)) 94 % of control; (dose: 200.0 mg/kg/injection, schedule: Q01DX001 (ip), vehicle: Klucel (hydroxypropylcellulose) (HPC)) 94 % of control; (dose: 400.0 mg/kg/injection, schedule: Q01DX001 (ip), vehicle: Klucel (hydroxypropylcellulose) (HPC)) 94 % of control.
Consider `COc1ccc2nc(-c3ccc(Cl)cc3)cc(C(=O)O)c2c1`, for which the T/C runs as follows: (dose: 50.0 mg/kg/injection, schedule: Q01DX005 (ip), vehicle: Klucel (hydroxypropylcellulose) (HPC)) 99 % of control; (dose: 100.0 mg/kg/injection, schedule: Q01DX005 (ip), vehicle: Klucel (hydroxypropylcellulose) (HPC)) 100 % of control; (dose: 200.0 mg/kg/injection, schedule: Q01DX005 (ip), vehicle: Klucel (hydroxypropylcellulose) (HPC)) 100 % of control.
